In patent publication US8227240B2, “Systems for screening pharmaceutical chemicals” (The Washington University, priority 2001, dated 2012):

Columns and labels:
[1] = test system: actin cytoskeletons in mono-layer cell cultures; experiment: Confocal microscopy of actin cytoskeletons stained with Rhodamine phalloidin; format: cell-based; conditions: CD 2 nM
[2] = test system: bio-artificial tissues (F-actin network); experiment: Tissue indentation device: force-time and longitudinal force-strain curves (Example 15); format: cell-based
Description: Bio-artificial tissues were generated by mixing cells and neutralized collagen, as described elsewhere (Wakatsuki et al., 2000, Biophys. J. 79:2353-2368). Briefly, cells were mixed with neutralized rat-tail collagen (Millipore Billerica, Mass.) and media containing 10% Fetal Bovine Serum (FBS). 200-250[…]1 of this solution is poured into wells as described below. The tissues are cultured in Dulbecco's modified Eagle's medium (DMEM) supplemented with 10% FBS and antibiotics (penicillin and streptomycin) in an incubator for two or three days. The bio-artificial tissue membrane was stretched using a mechanical testing device is (as detailed below). During the mechanical measurements, culture medium was switched to a HEPES-buffered DMEM, pH 7.4, and maintained at 37° C.
A chamber to hold 8 bio-artificial tissues was machined from a polycarbonate bar (25×60×10 mm) using a tabletop CNC mill (Sherline Products Inc., Vista, Calif.). The 8 square wells of 8×8 mm contained 2 horizontal stainless-steel (medical grade) bars (1 mm diameter) which centers were located 2 mm above bottom and 2 mm beside each wall and were 4 mm apart (FIG. 29A). A microscope cover-slip (No. 1 thickness, Fisher brand) sealed the bottom of wells using silicon glue (Dow chemicals) to facilitate microscopic imaging of cells and bio-artificial tissues. […]
The mechanical testing device is depicted in FIG. 29A. […] The linear actuators were controlled simultaneously by a personal computer that also recorded the signal generated by the force transducer. […]
While the force-probe indents the bio-artificial tissues vertically at a constant rate, ν (0.5 mm/sec), an isometric force transducer connected to the force probe recorded a resistance force, F(t). A time dependent change in bio-artificial tissues-membrane force in the longitudinal direction, T(t), was calculated from F(t) by a trigonometric relationship (FIG. 28). This rate of indentation was determined to achieve a minimum noise-level by the current device arrangement. […]

SMILES: C=C1[C@@H](C)[C@H]2[C@H](Cc3ccccc3)NC(=O)[C@]23[C@H](OC(C)=O)/C=C/[C@@](C)(O)C(=O)[C@@H](C)C/C=C/[C@H]3[C@@H]1O [CD, cytochalasin D]
- effect on actin cytoskeletons by confocal microscopy [1]: no effect was observed
- pre-force σ0A (minimum force) compared to untreated control ([2]; 90 nM CD): reduced levels
- resistance force F(t) while stretching the membrane ([2]; 90 nM and 2 μM CD): less resistance force
- pre-force σ0A (minimum force) compared to untreated control ([2]; 2 μM CD): reduced levels
